Reference: ChEMBL document CHEMBL5291721, “A preclinical secondary pharmacology resource illuminates target-adverse drug reaction associations of marketed drugs” (Nat Commun, 2023)

Experiments:
[1] = target: Beta-1 adrenergic receptor (Homo sapiens, UniProt P08588); assay type: functional
[2] = target: 5-hydroxytryptamine receptor 2B (Homo sapiens, UniProt P41595); assay type: functional, cell-based
Histamine H1 receptor = Histamine H1 receptor (Homo sapiens, UniProt P35367)
[3] = target: Muscarinic acetylcholine receptor M3 (Homo sapiens, UniProt P20309)
[4] = target: T1, Alpha-1A adrenergic receptor (Homo sapiens, UniProt P35348); assay type: functional, cell-based
T1 sequence (P35348 whole entry): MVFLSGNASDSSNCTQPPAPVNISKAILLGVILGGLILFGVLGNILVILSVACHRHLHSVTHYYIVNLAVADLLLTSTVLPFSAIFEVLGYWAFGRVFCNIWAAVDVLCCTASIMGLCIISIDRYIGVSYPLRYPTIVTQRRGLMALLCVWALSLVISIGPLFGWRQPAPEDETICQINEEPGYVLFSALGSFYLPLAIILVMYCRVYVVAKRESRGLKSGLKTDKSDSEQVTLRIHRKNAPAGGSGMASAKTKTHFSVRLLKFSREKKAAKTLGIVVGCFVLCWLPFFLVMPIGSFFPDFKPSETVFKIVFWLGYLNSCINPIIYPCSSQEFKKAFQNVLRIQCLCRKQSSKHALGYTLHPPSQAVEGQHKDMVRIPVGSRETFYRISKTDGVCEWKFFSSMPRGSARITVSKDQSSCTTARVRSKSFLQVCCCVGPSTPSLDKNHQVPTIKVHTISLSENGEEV

[5] = target: T2, Muscarinic acetylcholine receptor M1 (Homo sapiens, UniProt P11229); assay type: functional
T2 sequence (P11229 whole entry): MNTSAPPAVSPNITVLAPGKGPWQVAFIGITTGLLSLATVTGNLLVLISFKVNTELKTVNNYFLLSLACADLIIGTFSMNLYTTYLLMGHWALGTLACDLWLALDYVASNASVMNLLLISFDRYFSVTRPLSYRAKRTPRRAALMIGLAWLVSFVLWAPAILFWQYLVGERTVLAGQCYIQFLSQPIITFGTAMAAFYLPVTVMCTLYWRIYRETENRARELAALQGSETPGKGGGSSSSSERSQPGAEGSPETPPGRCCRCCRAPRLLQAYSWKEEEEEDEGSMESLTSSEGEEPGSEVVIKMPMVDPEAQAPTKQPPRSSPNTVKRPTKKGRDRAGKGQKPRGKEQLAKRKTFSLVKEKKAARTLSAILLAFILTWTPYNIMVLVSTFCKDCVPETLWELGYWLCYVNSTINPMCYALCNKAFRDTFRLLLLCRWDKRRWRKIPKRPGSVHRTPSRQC

Mu-type opioid receptor = Mu-type opioid receptor (Homo sapiens, UniProt P35372); test: biochemical; assay type: functional
[6] = target: T3, 5-hydroxytryptamine receptor 2A (Homo sapiens, UniProt P28223); assay type: functional, cell-based
[7] = target: Gamma-aminobutyric acid receptor subunit alpha-1 (Rattus norvegicus, UniProt P62813)
[8] = target: T3, 5-hydroxytryptamine receptor 2A; assay type: functional, cell-based; remark: listed apart in the source
Histamine H3 receptor = Histamine H3 receptor (Homo sapiens, UniProt Q9Y5N1)
[9] = target: Beta-2 adrenergic receptor (Homo sapiens, UniProt P07550); assay type: functional, cell-based
Cannabinoid receptor 1 = Cannabinoid receptor 1 (Homo sapiens, UniProt P21554)
Note: assay procedure not described here.

Sequence of Histamine H1 receptor (P35367 whole entry): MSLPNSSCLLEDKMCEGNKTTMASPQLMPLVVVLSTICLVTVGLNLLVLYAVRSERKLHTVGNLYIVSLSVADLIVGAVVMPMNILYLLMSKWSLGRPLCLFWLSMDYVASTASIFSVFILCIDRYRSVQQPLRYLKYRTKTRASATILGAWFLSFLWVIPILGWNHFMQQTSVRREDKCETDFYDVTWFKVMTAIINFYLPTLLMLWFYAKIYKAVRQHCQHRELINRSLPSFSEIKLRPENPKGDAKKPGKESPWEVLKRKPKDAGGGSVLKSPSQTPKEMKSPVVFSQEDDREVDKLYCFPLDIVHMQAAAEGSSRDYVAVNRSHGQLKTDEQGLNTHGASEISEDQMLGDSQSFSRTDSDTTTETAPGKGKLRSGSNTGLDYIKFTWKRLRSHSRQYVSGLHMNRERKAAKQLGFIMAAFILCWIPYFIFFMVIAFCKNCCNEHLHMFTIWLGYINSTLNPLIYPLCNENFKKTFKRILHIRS
Sequence of Histamine H3 receptor (Q9Y5N1 whole entry): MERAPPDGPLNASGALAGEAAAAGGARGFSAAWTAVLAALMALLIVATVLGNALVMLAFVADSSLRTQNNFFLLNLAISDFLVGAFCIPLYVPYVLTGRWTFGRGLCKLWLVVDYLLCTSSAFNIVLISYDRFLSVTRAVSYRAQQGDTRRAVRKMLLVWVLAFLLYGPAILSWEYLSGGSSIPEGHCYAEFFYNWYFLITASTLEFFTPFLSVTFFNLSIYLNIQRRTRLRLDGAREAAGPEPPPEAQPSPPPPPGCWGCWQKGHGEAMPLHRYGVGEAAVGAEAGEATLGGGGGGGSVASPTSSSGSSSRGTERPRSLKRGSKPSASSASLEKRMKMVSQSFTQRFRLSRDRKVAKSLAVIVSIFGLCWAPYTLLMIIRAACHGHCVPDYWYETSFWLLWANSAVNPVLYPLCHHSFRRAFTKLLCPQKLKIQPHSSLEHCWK
Sequence of Beta-1 adrenergic receptor (P08588 whole entry): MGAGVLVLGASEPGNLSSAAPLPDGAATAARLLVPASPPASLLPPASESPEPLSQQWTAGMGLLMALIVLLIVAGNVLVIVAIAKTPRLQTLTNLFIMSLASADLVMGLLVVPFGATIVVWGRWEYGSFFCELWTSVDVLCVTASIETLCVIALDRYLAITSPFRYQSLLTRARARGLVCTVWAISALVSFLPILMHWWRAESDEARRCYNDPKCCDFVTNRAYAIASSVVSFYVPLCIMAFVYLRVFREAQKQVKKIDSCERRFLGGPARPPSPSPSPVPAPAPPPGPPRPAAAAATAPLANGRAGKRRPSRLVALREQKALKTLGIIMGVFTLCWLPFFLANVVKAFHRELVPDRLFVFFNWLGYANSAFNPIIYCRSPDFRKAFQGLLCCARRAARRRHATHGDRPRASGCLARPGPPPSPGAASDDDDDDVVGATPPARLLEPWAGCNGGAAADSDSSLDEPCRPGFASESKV
Sequence of 5-hydroxytryptamine receptor 2B (P41595 whole entry): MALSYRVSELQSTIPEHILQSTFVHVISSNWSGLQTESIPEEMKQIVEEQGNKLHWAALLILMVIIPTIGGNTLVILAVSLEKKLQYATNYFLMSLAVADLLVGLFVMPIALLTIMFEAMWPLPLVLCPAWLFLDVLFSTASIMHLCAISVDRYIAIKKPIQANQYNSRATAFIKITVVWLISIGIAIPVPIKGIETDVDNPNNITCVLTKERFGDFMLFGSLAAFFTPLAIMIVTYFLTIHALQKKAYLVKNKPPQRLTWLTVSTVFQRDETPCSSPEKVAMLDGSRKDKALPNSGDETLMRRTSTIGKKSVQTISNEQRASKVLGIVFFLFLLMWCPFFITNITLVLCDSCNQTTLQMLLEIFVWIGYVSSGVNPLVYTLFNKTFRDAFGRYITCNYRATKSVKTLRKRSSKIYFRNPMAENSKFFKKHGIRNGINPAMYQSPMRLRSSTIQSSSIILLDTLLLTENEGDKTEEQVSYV
Sequence of Beta-2 adrenergic receptor (P07550 whole entry): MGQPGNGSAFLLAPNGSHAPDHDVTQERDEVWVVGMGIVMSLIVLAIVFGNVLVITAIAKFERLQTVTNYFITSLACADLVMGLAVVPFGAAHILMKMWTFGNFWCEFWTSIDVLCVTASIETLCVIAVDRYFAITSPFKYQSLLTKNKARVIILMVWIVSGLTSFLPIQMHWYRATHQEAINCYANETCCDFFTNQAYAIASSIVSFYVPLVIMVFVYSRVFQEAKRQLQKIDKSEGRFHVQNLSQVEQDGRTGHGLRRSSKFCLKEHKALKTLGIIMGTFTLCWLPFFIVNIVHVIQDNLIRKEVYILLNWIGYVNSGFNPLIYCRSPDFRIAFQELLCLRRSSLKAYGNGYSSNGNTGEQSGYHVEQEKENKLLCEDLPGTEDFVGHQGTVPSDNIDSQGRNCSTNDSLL
Sequence of Gamma-aminobutyric acid receptor subunit alpha-1 (P62813 whole entry): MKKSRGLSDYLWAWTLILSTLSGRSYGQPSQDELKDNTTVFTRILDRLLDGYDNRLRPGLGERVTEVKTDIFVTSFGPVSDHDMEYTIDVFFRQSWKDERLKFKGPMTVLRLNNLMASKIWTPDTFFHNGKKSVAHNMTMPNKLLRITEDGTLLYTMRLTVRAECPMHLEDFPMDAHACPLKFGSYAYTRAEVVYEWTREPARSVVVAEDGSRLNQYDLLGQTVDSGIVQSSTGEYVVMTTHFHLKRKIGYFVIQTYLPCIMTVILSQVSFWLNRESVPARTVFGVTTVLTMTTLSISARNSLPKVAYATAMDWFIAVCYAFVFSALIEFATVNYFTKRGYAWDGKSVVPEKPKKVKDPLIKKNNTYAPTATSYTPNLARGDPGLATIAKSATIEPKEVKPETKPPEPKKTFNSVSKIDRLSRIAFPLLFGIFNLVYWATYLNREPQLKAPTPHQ
Sequence of Muscarinic acetylcholine receptor M3 (P20309 whole entry): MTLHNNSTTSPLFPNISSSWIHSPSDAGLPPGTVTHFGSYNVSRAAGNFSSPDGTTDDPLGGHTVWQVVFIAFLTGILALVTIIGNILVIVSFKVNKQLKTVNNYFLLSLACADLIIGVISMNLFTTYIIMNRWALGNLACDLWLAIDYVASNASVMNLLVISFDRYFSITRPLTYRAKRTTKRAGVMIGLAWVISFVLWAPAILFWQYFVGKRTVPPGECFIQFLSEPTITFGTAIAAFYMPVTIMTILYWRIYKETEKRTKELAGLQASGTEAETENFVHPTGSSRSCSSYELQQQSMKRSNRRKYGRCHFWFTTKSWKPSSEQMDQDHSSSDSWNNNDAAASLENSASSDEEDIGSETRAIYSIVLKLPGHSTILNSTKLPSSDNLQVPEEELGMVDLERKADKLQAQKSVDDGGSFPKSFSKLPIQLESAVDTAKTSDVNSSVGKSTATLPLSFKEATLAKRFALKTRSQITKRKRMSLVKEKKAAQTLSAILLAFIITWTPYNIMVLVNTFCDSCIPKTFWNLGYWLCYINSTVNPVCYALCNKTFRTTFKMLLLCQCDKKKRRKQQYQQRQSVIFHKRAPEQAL
T3 sequence (P28223 whole entry): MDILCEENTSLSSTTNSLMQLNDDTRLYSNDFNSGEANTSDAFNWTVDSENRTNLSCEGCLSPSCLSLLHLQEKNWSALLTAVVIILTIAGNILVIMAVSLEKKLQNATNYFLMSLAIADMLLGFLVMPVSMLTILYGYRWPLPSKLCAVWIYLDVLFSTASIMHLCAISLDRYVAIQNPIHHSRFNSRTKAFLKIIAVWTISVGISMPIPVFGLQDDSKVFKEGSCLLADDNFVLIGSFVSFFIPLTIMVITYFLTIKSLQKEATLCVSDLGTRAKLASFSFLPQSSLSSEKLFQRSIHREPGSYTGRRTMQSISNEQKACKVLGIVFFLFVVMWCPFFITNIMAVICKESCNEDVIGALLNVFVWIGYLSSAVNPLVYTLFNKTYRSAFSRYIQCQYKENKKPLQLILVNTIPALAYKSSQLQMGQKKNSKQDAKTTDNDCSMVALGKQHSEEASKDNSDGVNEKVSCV
Sequence of Mu-type opioid receptor (P35372 whole entry): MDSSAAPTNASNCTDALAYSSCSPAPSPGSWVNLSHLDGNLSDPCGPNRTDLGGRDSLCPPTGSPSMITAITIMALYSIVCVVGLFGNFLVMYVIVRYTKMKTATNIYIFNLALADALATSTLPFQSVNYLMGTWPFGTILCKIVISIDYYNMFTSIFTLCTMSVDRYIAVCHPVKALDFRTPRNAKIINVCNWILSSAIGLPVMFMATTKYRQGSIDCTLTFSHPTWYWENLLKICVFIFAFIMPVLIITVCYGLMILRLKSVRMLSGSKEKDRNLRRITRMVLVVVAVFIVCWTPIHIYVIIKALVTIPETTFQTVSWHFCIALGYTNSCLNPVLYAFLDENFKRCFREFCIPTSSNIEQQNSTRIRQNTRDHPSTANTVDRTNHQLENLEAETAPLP
Sequence of Cannabinoid receptor 1 (P21554 whole entry): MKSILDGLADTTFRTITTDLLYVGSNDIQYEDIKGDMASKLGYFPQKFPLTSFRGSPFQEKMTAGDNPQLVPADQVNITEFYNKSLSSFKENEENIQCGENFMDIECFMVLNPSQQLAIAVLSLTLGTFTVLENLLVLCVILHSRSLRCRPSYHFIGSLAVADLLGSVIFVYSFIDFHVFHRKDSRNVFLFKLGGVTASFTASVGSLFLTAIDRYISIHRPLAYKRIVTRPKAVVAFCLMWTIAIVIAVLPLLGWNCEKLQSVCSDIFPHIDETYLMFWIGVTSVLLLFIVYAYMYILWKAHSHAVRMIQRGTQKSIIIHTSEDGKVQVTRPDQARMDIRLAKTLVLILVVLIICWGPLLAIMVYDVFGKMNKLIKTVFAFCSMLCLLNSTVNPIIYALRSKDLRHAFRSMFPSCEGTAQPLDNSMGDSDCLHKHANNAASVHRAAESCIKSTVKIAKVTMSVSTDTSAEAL

Structure (SMILES)	AC50 [1]	AC50 [2]	AC50 (Histamine H1 receptor)	AC50 [3]	AC50 [4]	AC50 [5]	AC50 (Mu-type opioid receptor)	AC50 [6]	AC50 [7]	AC50 [8]	AC50 (Histamine H3 receptor)	AC50 [9]	AC50 (Cannabinoid receptor 1)
CC(=O)N[C@@H](CS)C(=O)O [ACETYLCYSTEINE]	> 30 µM	> 30 µM	> 30 µM	> 30 µM	> 30 µM	> 30 µM	> 30 µM	> 30 µM	> 30 µM	> 30 µM	> 30 µM	> 30 µM	
CCOC(=O)c1cncn1[C@H](C)c1ccccc1 [ETOMIDATE]	> 10 µM	> 10 µM	> 10 µM	> 30 µM	> 30 µM	> 10 µM		> 10 µM		> 10 µM	> 10 µM	> 30 µM	> 10 µM
C[C@]12CC[C@@H]3c4ccc(O)cc4C[C@@H](CCCCCCCCC[S+]([O-])CCCC(F)(F)C(F)(F)F)[C@H]3[C@@H]1CC[C@@H]2O (stereo partly specified) [FULVESTRANT]	> 30 µM	> 30 µM	> 30 µM	> 30 µM	> 30 µM	> 30 µM	> 30 µM	> 30 µM	> 30 µM	> 30 µM	> 30 µM	> 30 µM	
CCC(=O)O[C@H]1CC[C@H]2[C@@H]3CCC4=CC(=O)CC[C@]4(C)[C@H]3CC[C@]12C [TESTOSTERONE PROPIONATE]	> 10 µM	> 10 µM	> 10 µM	> 10 µM	> 30 µM	> 10 µM		> 30 µM	> 10 µM	> 30 µM		> 30 µM	> 10 µM
